Measurements published in patent US20090181972A1, “Novel Inhibitors of Cysteine Proteases, the Pharmaceutical Compositions Thereof and their Therapeutic Applications” (priority 2005, published 2009).

Columns and labels:
Caspase 3 = molecular target: T1, Caspase 3 (Homo sapiens, UniProt P42574); test: Caspase 3 activity assay; format: biochemical; conditions: 500 nM Ac-DEVD-AMC, 3.2 nM enzyme; pre-incubated 30 minutes at 25° C., 60 minutes at 37° C.; sigmoidal fit
T1 sequence (P42574 29-175 limits assumed): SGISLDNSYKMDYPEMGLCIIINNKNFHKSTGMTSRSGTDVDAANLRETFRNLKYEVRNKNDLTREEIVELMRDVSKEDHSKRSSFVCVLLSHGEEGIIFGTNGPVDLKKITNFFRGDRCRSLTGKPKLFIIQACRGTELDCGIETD
T1 sequence (P42574 176-277 limits assumed): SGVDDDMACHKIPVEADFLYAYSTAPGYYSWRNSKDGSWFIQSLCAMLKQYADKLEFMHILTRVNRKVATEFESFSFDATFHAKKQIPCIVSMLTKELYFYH
Description: Caspase 3 was diluted in Caspase 3 buffer (100 mM Hepes pH 7.5; 10% sucrose; 0.1% CHAPS). Compounds stocks (100 mM) were stored at −20° C. in DMSO. Compounds were tested at the following final concentrations: 100 μM; 33.3 μM; 11.1 μM; 3.7 μM; 1.23 μM; 412 nM; 137 nM; 45.7 nM; 15.2 nM; 5 nM. Reactions were performed as duplicates in Black LJL 96 well plates (HE microplates; Molecular Devices; 20 μl final reaction volume). The substrate concentration for caspase 3 specificity assay was 500 nM (Ac-DEVD-AMC; Promega). The concentration of the enzyme (Caspase 3) in specificity assays was 3.2 nM. The concentrations were determined in order to perform specificity assays under initial velocities at fixed substrate concentration. Compounds were pre-incubated with enzymes for 30 minutes at 25° C. Reactions were initiated by addition of substrate to the plates containing the enzymes (+/− compounds) diluted in assay buffer. Reactions were incubated for 60 minutes at 37° C. Reactions were stopped by adding acetic acid (100 mM final). Readings were performed on a Pherastar Fluorescent Reader (BMG). δ Emission 380 nm; δ Excitation=460 nm. Data (mean values +/− standard deviation) were analyzed as % of control (no compound) and plotted as percentage versus the Log of the compound concentration using GraphPad (Prism). Data were fitted to a sigmoidal model (variable slope).

USP5 = molecular target: T2, USP5 (Homo sapiens, UniProt P45974); test: USP5 activity assay; format: biochemical; conditions: 400 nM Ub-AMC, 300 pM enzyme; pre-incubated 30 minutes at 25° C., 60 minutes at 37° C.; sigmoidal fit; read-out: USP 5
T2 sequence (P45974 1-858): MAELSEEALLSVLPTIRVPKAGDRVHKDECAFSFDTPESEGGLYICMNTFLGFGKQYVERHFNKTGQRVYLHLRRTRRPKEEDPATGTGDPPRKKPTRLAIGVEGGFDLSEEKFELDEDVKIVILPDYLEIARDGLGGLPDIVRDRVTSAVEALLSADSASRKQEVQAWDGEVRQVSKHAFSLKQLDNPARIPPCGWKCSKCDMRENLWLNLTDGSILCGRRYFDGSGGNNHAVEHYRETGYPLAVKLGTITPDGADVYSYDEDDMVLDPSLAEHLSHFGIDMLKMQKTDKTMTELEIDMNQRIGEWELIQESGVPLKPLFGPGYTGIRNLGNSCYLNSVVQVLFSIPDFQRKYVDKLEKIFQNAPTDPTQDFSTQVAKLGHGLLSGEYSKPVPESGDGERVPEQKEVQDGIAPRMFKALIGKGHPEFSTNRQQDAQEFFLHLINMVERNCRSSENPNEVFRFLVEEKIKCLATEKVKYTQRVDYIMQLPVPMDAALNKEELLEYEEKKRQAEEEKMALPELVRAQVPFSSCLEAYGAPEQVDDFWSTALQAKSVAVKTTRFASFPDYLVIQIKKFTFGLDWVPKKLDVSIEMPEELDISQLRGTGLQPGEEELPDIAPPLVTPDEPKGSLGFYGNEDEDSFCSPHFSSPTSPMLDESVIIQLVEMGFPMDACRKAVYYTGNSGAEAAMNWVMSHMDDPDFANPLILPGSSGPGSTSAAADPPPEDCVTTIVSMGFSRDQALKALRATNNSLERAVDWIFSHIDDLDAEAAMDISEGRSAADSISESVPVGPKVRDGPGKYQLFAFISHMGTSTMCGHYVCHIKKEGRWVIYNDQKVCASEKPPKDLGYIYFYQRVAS
Description: USP5 was diluted in USP buffer (50 mM Tris HCl; 0.5 mM EDTA; 5 mM DTT; 0.01% Triton X-100; Bovine Serum Albumin 0.05 mg.ml^−1 pH 7.6). Compounds stocks (100 mM) were stored at -20° C. in DMSO.
Reactions were performed as duplicates in Black LJL 96 well plates (HE microplates; Molecular Devices; 20 μl final reaction volume). The substrate concentration for USP5 was 400 nM Ub-AMC (Boston Biochem). The concentrations of the enzyme (USP5) in specificity assays was 300 pM. The concentrations were determined in order to perform specificity assays under initial velocities at fixed substrate concentration. Compounds were pre-incubated with enzymes for 30 minutes at 25° C. Reactions were initiated by addition of substrate to the plates containing the enzymes (+/− compounds) diluted in assay buffer. Reactions were incubated for 60 minutes at 37° C. Reactions were stopped by adding acetic acid (100 mM final). Readings were performed on a Pherastar Fluorescent Reader (BMG). λ Emission 380 nm; λ Excitation=460 nm. Data (mean values +/− standard deviation) were analyzed as % of control (no compound) and plotted as percentage versus the Log of the compound concentration using GraphPad (Prism). Data were fitted to a sigmoidal model (variable slope).

Row | Compound | IC50 (Caspase 3) [µM] | IC50 (USP5) [µM]
1 | 6-(7)-Chloro-1-methyl-2,3,4,10,10a-pentaaza-cyclopenta[b]fluoren-9-one [Example 3/A] | 1.51 | 1.54
2 | CC(C)c1nnc2nc3c(nn12)C(=O)c1ccccc1-3 [Example 1l/A, 1-lsopropyl-2,3,4,10,10a-pentaaza-cyclopenta[b]fluoren-9-one] | 5 | 3.9
3 | CCc1nnc2nc3c(nn12)C(=O)c1cc(OC)c(OC)cc1-3 [Example 5b/A, 1-Ethyl-6,7-dimethoxy-2,3,4,10,10a-pentaaza-cyclopenta[b]fluoren-9-one] | 5.2 | 4.8
4 | CCc1nnc2nc3c(nn12)-c1cc(OC)c(OC)cc1C3=O [Example 5b/B, 3-Ethyl-6,7-dimethoxy-1,2,3a,4,10-pentaaza-cyclopenta[b]fluoren-9-one] | 0.314 | 
